The target of assay [1] is T1, Nuclear factor erythroid 2-related factor 2 (Mus musculus) (UniProt Q60795).
T1 sequence (whole entry): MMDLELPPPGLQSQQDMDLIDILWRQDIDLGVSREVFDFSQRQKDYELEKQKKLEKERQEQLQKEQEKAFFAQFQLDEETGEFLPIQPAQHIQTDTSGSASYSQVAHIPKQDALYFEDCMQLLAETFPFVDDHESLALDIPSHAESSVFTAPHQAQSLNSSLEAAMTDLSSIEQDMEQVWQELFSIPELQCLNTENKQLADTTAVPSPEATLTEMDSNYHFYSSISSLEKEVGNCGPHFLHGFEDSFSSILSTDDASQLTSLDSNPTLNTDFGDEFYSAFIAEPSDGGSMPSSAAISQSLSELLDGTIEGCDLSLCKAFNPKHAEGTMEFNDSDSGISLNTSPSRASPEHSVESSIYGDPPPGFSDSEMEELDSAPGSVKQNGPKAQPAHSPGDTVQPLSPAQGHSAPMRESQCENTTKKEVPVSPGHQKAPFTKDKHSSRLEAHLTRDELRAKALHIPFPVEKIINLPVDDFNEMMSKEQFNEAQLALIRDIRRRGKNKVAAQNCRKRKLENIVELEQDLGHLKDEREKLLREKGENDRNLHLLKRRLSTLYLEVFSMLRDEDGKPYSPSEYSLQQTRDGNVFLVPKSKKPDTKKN
The assay can be described thus: Induction of NRF2 stabilization in C57BL/6 mouse bone marrow cells exposed to 21% oxygen at 2 uM incubated for 1 hr. Type of assay: cell-based. Conditions: Bone marrow cell.

Assay [2] has as its target T1, Nuclear factor erythroid 2-related factor 2 (Mus musculus). The assay can be described thus: Induction of NRF2 stabilization in C57BL/6 mouse bone marrow cells exposed to 4% oxygen at 2 uM incubated for 1 hr. Type of assay: cell-based. Particulars: Bone marrow cell.
Assay [3] shares this target. The assay can be described thus: Activation of NRF2 in C57BL/6 mouse bone marrow cells exposed to 21% oxygen at 2 uM incubated for 1 hr. Type of assay: cell-based. Particulars: Bone marrow cell.
Assay [4] has the same target. The assay can be described thus: Induction of NRF2 stabilization in C57BL/6 mouse bone marrow cells exposed to 1% oxygen at 2 uM incubated for 1 hr. Type of assay: cell-based. Particulars: Bone marrow cell.
Assay [5] has the same target. The assay can be described thus: Activation of NRF2 in C57BL/6 mouse bone marrow cells exposed to 4% oxygen at 2 uM incubated for 1 hr. Conditions: Bone marrow cell. Type of assay: cell-based.
Assay [6] has the same target. The assay can be described thus: Activation of NRF2 in C57BL/6 mouse bone marrow cells exposed to 1% oxygen at 2 uM incubated for 1 hr. Conditions: Bone marrow cell. Type of assay: cell-based.
For the next assay, the system named is Bone marrow cell. The assay can be described thus: Upregulation of Nfe2l2 gene expression in C57BL/6 mouse bone marrow cells exposed to 4% oxygen at 2 uM incubated for 4 hrs by qRT-PCR analysis. Type of assay: functional, cell-based. A general note: Real-time PCR tracks product formation cycle by cycle.
The target in assay [7] is T1, Nuclear factor erythroid 2-related factor 2 (Mus musculus). Nature of the assay: Activation of NRF2 in C57BL/6 mouse bone marrow cells assessed as increase in Hmox1 gene expression exposed to 4% oxygen at 2 uM incubated for 4 hrs by qRT-PCR analysis. Type of assay: cell-based. Conditions: Bone marrow cell.
For assay [8] the target is unchanged. Nature of the assay: Activation of NRF2 in C57BL/6 mouse bone marrow cells assessed as increase in Gclm gene expression exposed to 4% oxygen at 2 uM incubated for 4 hrs by qRT-PCR analysis. Type of assay: cell-based. Particulars: Bone marrow cell.
The target is the same in assay [9]. Nature of the assay: Activation of NRF2 in C57BL/6 mouse bone marrow cells assessed as increase in Hmox1 gene expression exposed to 1% oxygen at 2 uM incubated for 4 hrs by qRT-PCR analysis. Type of assay: cell-based. Conditions: Bone marrow cell.
The target is the same in assay [10]. Nature of the assay: Activation of NRF2 in C57BL/6 mouse bone marrow cells assessed as increase in Gclm gene expression exposed to 1% oxygen at 2 uM incubated for 4 hrs by qRT-PCR analysis. Type of assay: cell-based. Particulars: Bone marrow cell.
Assay [11] shares this target. The assay can be described thus: Activation of NRF2 in C57BL/6 mouse bone marrow cells assessed as increase in GCLM level exposed to 21% oxygen at 2 uM incubated for 7 hrs by Western blot analysis. Type of assay: cell-based. Particulars: Bone marrow cell. In general terms: In western blotting, separated proteins are transferred to a membrane and probed.
For assay [12] the target is unchanged. The assay can be described thus: Activation of NRF2 in C57BL/6 mouse bone marrow cells assessed as increase in GCLM level exposed to 1% oxygen at 2 uM incubated for 7 hrs by Western blot analysis. Type of assay: cell-based. Particulars: Bone marrow cell.
The target is the same in assay [13]. Nature of the assay: Activation of NRF2 in C57BL/6 mouse bone marrow cells assessed as nuclear translocation of NRF2 exposed to 1% oxygen at 2 uM incubated for 1 hr by Western blot analysis. Type of assay: cell-based. Conditions: Bone marrow cell.
Assay [14] has the same target. Nature of the assay: Activation of NRF2 in C57BL/6 mouse bone marrow cells assessed as increase in HO-1 level exposed to 21% oxygen at 2 uM incubated for 4 hrs by Western blot analysis. Type of assay: cell-based. Conditions: Bone marrow cell, filed as activator.
The target is the same in assay [15]. The assay can be described thus: Activation of NRF2 in C57BL/6 mouse bone marrow cells assessed as nuclear translocation of NRF2 exposed to 1% oxygen at 2 uM incubated for 1 hr by IHC analysis. Type of assay: cell-based. Particulars: Bone marrow cell, filed as activator.
The target is the same in assay [16]. The assay can be described thus: Activation of NRF2 in C57BL/6 mouse bone marrow cells assessed as fold increase in HO-1 level exposed to 1% oxygen at 2 uM incubated for 4 hrs by Western blot analysis relative to control. Particulars: Bone marrow cell, filed as activator. Type of assay: cell-based.
For assay [17] the target is unchanged. Nature of the assay: Activation of NRF2 in C57BL/6 mouse bone marrow cells assessed as fold increase in HO-1 level exposed to hypoxic condition at 2 uM incubated for 4 hrs by Western blot analysis. Type of assay: cell-based. Conditions: Bone marrow cell, filed as activator.

The structures appear in SMILES notation. Calls of active or inactive are those of the source. No cut-off for these calls is given here.

With `CCCCCCCCC(CCCCCCCCC(=O)O)[N+](=O)[O-]` (configuration not stated), the outcome in assay [1], in assay [2] and in assay [4] was Active. In addition, the result (in assay [3]; in assay [5]; in assay [6]; in the assay on Bone marrow cell; in assay [7]; in assay [8]) was inactive. Moreover, the result in [9], in assay [10], in assay [11], in assay [12] and in [13] was inactive.
`CCCCCCCC/C(=C\CCCCCCCC(=O)O)[N+](=O)[O-]`: the result in assay [1], in assay [2], in assay [4], in assay [6] (filed as activator), in assay [7] (filed as activator) and in assay [8] (filed as activator) was Active. Further, the result in [9] (filed as activator), in [10] (filed as activator), in [14], in [11] (filed as activator), in assay [12] (filed as activator) and in assay [13] (filed as activator) was Active. Besides, in assay [15], the result was Active. The result (in assay [3]; with Bone marrow cell) was inactive.
`CCCCCCCC/C=C(\CCCCCCCC(=O)O)[N+](=O)[O-]`: the result (in [1]; in assay [2]; in assay [4]; in assay [6] (filed as activator); with Bone marrow cell; in assay [7] (filed as activator)) was Active. In addition, the outcome in [8] (filed as activator), in [9] (filed as activator), in [10] (filed as activator), in assay [14], in [11] (filed as activator) and in assay [12] (filed as activator) was Active. For the same compound, in [13] (filed as activator), the result was Active. Besides, the outcome in assay [3] was inactive. For the same compound, in [16], the fold change (FC) was 1.8.
`CCCCC/C=C\C/C(=C\CCCCCCCC(=O)O)[N+](=O)[O-]`: the outcome in assay [1], in [2], in assay [4], in assay [5] (filed as activator), in assay [17] and in [11] (filed as activator) was Active. Besides, the result (in [3]; in the assay with Bone marrow cell) was inactive. Also, the Activity entry in assay [7] (filed as activator), in [8] (filed as activator), in [9] (filed as activator) and in assay [10] (filed as activator) was “Active; Compound Exhibited Upregulation That Was Dependent On Oxygen Levels Or Specific Target Genes” throughout.
As to `CCCCCCC=C/C=C(\CCCCCCCC(=O)O)[N+](=O)[O-]`, the result in assay [1], in assay [2], in assay [4], in assay [5] (filed as activator) and in assay [6] (filed as activator) was Active. The result (in [3]; with Bone marrow cell) was inactive. The Activity entry in [7] (filed as activator), in assay [8] (filed as activator), in [9] (filed as activator) and in [10] (filed as activator) was “Active; Compound Exhibited Upregulation That Was Dependent On Oxygen Levels Or Specific Target Genes” in each case.

For the origin of these results see ChEMBL document CHEMBL6109182, “Regio- and Stereoselective Synthesis of Nitro-fatty Acids as NRF2 Pathway Activators Working under Ambient or Hypoxic Conditions” (J Med Chem, 2025).
